Laboratory results: patent US11377473B2, “Albumin-binding prodrugs of auristatin E derivatives” (priority 2017, dated 2022)

How the values were obtained:
[1] = test system: NSCLC xenograft model LXFA737; assay: Human non-small cell lung cancer model LXFA737, large tumors; assay type: in vivo, NMRI nude mice
Excerpt: Mice were kept under a 14-hour light/10-hour dark, artificial light cycle. The animals were fed with autoclaved Teklad Global 19% Protein Extruded Diet (T.2019S.12) from Envigo RMS SARL and had access to sterile filtered and acidified (pH 2.5) tap water which was changed twice weekly. Feed and water were provided ad libitum. […] Animals were routinely monitored twice daily on working days and daily on Saturdays and Sundays. Starting on day 0, animals were weighed twice a week. Relative body weights (RBW) of individual animals were calculated by dividing the individual absolute body weight on day X (BWx) by the individual body weight on the day of randomization multiplied by 100%. […] Tumor volumes were calculated according to the following equation: […]
Statistical analysis was only carried out if at least 50% of the initially randomized animals in a relevant group were still alive. Comparisons between test groups were carried out for the same days. By convention, p-values ≤0.05 indicate significance of tumor inhibition. Statistical calculations were performed using GraphPad Prism bioanalytic software (San Diego Calif. USA, www.graphpad.com).
The evaluation of auristatin E and the albumin-binding auristatin E derivative AE-Keto-Sulf07 in a human non-small cell lung cancer model LXFA737 was carried out as described in the general procedure for patient-derived xenograft models.
Sample preparation: 51 mg weighed in a 100 mL vial dissolved in 36.5 mL 50/50 tert-butanol/10 mM sodium citrate buffer, 3% 2-HPßCD—pH 6.2; 2.4 mL were aliquoted in 4 mL vials.

[2] = target: T1, albumin in rat plasma (Rattus norvegicus, UniProt P02770); assay: Binding kinetics to albumin in rat plasma; assay type: in vitro ADME, Sprague Dawley rat; conditions: 37° C.
T1 construct: CD1 murine plasma and Sprague Dawley rat plasma were removed from −80° C. storage; from tissue; host or cells: Sprague Dawley rat plasma (frozen, thawed, filtered)
T1 sequence (P02770 25-608): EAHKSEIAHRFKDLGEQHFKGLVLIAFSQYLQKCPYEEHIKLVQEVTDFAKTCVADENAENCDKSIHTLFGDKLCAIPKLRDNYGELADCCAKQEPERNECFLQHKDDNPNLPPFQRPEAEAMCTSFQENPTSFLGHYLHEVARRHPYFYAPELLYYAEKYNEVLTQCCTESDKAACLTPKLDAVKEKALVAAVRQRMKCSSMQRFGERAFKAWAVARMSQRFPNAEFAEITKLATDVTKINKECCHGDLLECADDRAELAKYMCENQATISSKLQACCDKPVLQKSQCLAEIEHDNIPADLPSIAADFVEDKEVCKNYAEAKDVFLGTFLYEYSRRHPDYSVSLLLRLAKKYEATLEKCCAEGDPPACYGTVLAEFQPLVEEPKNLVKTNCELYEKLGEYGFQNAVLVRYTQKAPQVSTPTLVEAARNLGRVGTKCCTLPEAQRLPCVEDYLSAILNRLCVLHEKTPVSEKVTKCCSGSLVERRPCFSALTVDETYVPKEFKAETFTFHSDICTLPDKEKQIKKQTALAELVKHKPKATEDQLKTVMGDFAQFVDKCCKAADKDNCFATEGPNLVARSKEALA
Protocol: (§1) CD1 murine plasma and Sprague Dawley rat plasma were removed from −80° C. storage and allowed to reach room temperature. The thawed plasma was spun down at 13.6 kRPM for 60 seconds, the supernatant was filtered through a filter needle (5 μm) and subsequently through a 0.45 μm CA membrane.
(§2) All binding experiments were carried out in triplicate. The plasma was incubated at 37° C. using an Eppendorf Thermomixer C. After 30 minutes incubation 40 μL of the appropriate albumin-binding auristatin-Sulf07 derivative was dissolved in its reconstitution solution and added to the plasma. Samples (40 μL) were taken after 15 seconds, 2 minutes, 4 minutes, 8 minutes and 15 minutes (5 samples).
(§3) The samples were immediately added to 160 μL of acetonitrile (containing 4 μg/mL of 'MMAE as an internal standard) and vortexed for 1 minute.
(§4) The solutions were pipetted into an Impact plasma precipitation plate (shaken for 60 seconds) and filtered by vacuum onto a 96 well plate. Remaining drug was determined by LCMS quantification (method 5, 30 μL injection) using MRM MS2 negative mode (multiple reaction monitoring). Parent ions: auristatin F (Mass-744.8), AE-Keto-Sulf07 (Mass-1135.1) and AE-Ester-Sulf07 (Mass-1283.2). Percentage of binding was determined by comparing the AUC for AE-Keto-Sulf07 and AE-Ester-Sulf07 to calibration curves generated by LCMS for each compound.

[3] = Reconstitution stability (maleimide hydrolysis, loss of API) in reconstitution buffer; assay type: physicochemical; conditions: for stability of the reconstituted drug (maleimide hydrolysis and loss of API): 50 mM sodium phosphate buffer pH 7.6, 5% sucrose, 2-HPβCD, room temperature, 240 minutes; for maleimide hydrolyzed: after 4 hours incubation at room temperature in reconstitution buffer (50 mM sodium phosphate pH 7.65 containing 4% HPβCD and 5% sucrose)
Protocol: (§5) The albumin-binding AE-Keto drug derivatives were reconstituted in 50 mM sodium phosphate buffer pH 7.6 which contained 5% sucrose (w/v) and 2% 2-hydroxypropyl-β-cyclodextrin (2-HPβCD). Both drugs were reconstituted at a concentration of 1277 μM (equal to 4.5 mg/kg murine xenograft dose), the dissolution of both drugs was confirmed by HPLC (method 2, 254 nm). Stability of the reconstituted drugs was monitored by HPLC at room temperature every 15 minutes over a period of 240 minutes for maleimide hydrolysis and loss of API.
as §5, with “AE-Ester” for “AE-Keto drug”, “4% 2-HPβCD.” for “2% 2-hydroxypropyl-β-cyclodextrin (2-HPβCD).”, “655” for “1277”, “2.4” for “4.5”, “310” for “254”

[4] = Accelerated degradation of lyophilized auristatin formulations; assay type: physicochemical; conditions: 55° C. for up to 264 hours
Protocol: The APIs were dissolved in the lyophilization buffer which contained 2-HPβCD, 10 mM sodium citrate pH 6.2, 50% tert-butyl alcohol (V/V)). For the AE-Keto derivatives 2% (w/v) 2-HPβCD was employed to dissolve the AE-Keto APIs at 1.27 mM concentration; for the AE-Ester derivatives 4% (w/v) 2-HPβCD was used to dissolve the APIs at 1.05 mM concentration. The dissolved APIs were sterile filtered using an Acrodisc Fluorodyne II syringe filter (0.2 μm). The sterile solutions were pipetted into lyophilization vials which were then partially sealed using a rubber stopper. The vials were subsequently placed into the freeze dryer for lyophilization. The vials were frozen on the freeze dryer shelf at −40° C. for 2 hours, after 2 hours main drying was started. Main drying was run for 26 hours, parameters: shelf temperature −20° C., vacuum 0.0048 mbar. After main drying, final drying was initiated. Final drying was run for 16 hours, parameters: shelf temperature 20° C., vacuum 0.0047 mbar. […]
The sealed vials were incubated at 55° C. using an Eppendorf Thermomixer C with a plate insert (Smartblock) and lid. […] Stability of the APIs was determined by HPLC (method 8, 254 nm for AE-Keto derivatives, 310 nm for AE-Ester derivatives). The percentage of maleimide hydrolysis at each time point was determined by comparison to the AUC for each API at time 0.

[5] = target: T2, albumin in murine plasma (Mus musculus, UniProt P07724); assay: Binding kinetics to albumin in murine plasma; assay type: in vitro ADME, CD1 murine; conditions: 37° C.
T2 construct: CD1 murine plasma and Sprague Dawley rat plasma were removed from −80° C. storage; from tissue; host or cells: CD1 murine plasma (frozen, thawed, filtered)
T2 sequence (P07724 25-608): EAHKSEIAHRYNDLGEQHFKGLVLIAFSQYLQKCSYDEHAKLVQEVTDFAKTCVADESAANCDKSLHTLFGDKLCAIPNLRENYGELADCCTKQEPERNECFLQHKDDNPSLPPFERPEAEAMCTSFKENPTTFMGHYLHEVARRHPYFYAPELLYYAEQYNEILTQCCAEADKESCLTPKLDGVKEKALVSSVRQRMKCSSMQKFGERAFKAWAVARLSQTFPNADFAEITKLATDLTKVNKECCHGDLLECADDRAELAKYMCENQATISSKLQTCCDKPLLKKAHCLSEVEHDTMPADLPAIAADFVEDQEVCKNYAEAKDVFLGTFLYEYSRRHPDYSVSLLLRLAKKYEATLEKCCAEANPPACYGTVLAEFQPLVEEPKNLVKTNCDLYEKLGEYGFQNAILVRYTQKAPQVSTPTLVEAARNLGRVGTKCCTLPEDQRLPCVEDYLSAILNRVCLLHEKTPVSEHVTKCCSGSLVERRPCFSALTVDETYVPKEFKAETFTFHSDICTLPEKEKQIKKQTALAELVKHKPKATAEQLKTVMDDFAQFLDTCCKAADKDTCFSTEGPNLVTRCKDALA
Protocol: as §1, §2, §3, §4

[6] = target: T3, albumin in human plasma (Homo sapiens, UniProt P02768); assay: Binding kinetics to albumin in human plasma; assay type: in vitro ADME; conditions: 37° C.
T3 construct: the plasma was separated from the red blood cells by spinning it down for 3 minutes at 3000 RPM; from tissue; host or cells: fresh plasma of a healthy human volunteer
T3 sequence (P02768 25-609): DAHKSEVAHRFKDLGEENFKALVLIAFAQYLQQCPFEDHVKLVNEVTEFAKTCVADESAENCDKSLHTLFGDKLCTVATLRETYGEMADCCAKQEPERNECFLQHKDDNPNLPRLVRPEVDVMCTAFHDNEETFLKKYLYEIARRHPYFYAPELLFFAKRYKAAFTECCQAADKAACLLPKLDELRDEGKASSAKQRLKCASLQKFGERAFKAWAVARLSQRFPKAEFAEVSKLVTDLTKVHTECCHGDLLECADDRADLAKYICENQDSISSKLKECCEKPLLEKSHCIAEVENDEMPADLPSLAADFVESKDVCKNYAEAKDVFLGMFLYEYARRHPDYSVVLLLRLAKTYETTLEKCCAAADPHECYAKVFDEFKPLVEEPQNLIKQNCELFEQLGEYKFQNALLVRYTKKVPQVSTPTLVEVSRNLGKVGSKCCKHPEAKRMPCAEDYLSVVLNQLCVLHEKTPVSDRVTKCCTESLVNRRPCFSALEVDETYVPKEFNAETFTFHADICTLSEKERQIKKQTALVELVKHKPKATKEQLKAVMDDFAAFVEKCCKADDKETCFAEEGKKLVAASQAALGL
Protocol: Whole blood was taken from a healthy human volunteer (EDTA collection tube), the plasma was separated from the red blood cells by spinning it down for 3 minutes at 3000 RPM. The plasma was then used directly, within 2 hours of the blood donation. 360 μL of the appropriate plasma was used for each binding experiment.
as §2, §3, §4

Compound | antitumor activity ([1]; 0.3 mg/kg 8 times twice weekly) | albumin binding in plasma [2] | side effects ([1]; 4.5 mg/kg 8 times twice weekly) | tumor response ([1]; 4.5 mg/kg 8 times twice weekly, day 15 until end of study on day 59) | p, antitumor efficacy versus auristatin E ([1]; 4.5 mg/kg versus auristatin E 0.3 mg/kg, 8 times twice weekly, day 28) | stability of the reconstituted drug (maleimide hydrolysis and loss of API) [3] | maleimide hydrolyzed [3] | stability under accelerated degradation conditions (maleimide hydrolysis) [4] | albumin binding in plasma [5] | albumin binding in plasma [6]
CC[C@H](C)[C@@H]([C@@H](CC(=O)N1CCC[C@H]1[C@H](OC)[C@@H](C)C(=O)N[C@H](C)[C@@H](O)c1ccccc1)OC)N(C)C(=O)[C@@H](NC(=O)[C@H](C(C)C)N(C)C)C(C)C [auristatin E] | did not show any activity | – | – | – | – | – | – | – | – | –
CC[C@H](C)[C@@H]([C@@H](CC(=O)N1CCC[C@H]1[C@H](OC)[C@@H](C)C(=O)N[C@H](C)C(=NNC(=O)c1ccc(NC(=O)CCCCCN2C(=O)C=CC2=O)cc1S(=O)(=O)O)c1ccccc1)OC)N(C)C(=O)[C@@H](NC(=O)[C@H](C(C)C)N(C)C)C(C)C [AE-Keto-Sulf07, 2-(2-((R)-2-((2R,3R)-3-((S)-1-((3R,4S,5S)-4-((S)-2-((S)-2-(dimethylamino)-3-methylbutanamido)-N,3-dimethylbutanamido)-3-methoxy-5-methylheptanoyl)pyrrolidin-2-yl)-3-methoxy-2-methylpropanamido)-1-phenylpropylidene)hydrazine-1-carbonyl)-5-(6-(2,5-dioxo-2,5-dihydro-1H-pyrrol-1-yl)hexanamido)benzenesulfonic acid] | – | very rapid | No side effects were registered | partial tumor remission | < 0.01 | more stable than AE-Keto-EMCH | 2.2% | more stable than the respective EMCH derivatives | very rapid | very rapid
2-(2-(1-(4-(((1S,2R)-2-((2R,3R)-3-((S)-1-((3R,4R,5S)-4-((S)-2-((R)-2-(dimethylamino)-3-methylbutanamido)-N,3-dimethylbutanamido)-3-methoxy-5-methylheptanoyl)pyrrolidin-2-yl)-3-methoxy-2-methylpropanamido)-1-phenylpropoxy)carbonyl)phenyl)ethylidene)hydrazine-1-carbonyl)-5-(6-(2,5-dioxo-2,5-dihydro-1H-pyrrol-1-yl)hexanamido)benzenesulfonic acid [AE-Ester-Sulf07] | – | very rapid | – | – | – | more stable than AE-Ester-EMCH | 2.5% | more stable than the respective EMCH derivatives | very rapid | very rapid
